From PMC4701715 (Current Therapeutic Research, Clinical and Experimental, 2015)

Experiments:
Format in all cases: cell-based
rat GCGr [1] = target: T1, rat GCGr (Rattus norvegicus, UniProt P30082); assay: cAMP accumulation in CHO-K1 cells overexpressing the rat GCGr; details: CHO cells overexpressing rGCGr; 30 min incubation, room temperature, 1 mM IBMX; cAMP ELISA; mean, n = 3
T1 construct: host or cells: Chinese hamster ovary-K1 cells
Experimental: (§1) All cell culture reagents were obtained from Invitrogen (Life Technologies Ltd, Paisley, United Kingdom) unless otherwise stated. Chinese hamster ovary-K1 cells overexpressing the rat GCGr were routinely maintained in Dulbecco’s modified eagle medium (DMEM) with 25 mM glucose and 1 mM sodium pyruvate supplemented with 10% fetal bovine serum, 25 mM hydroxyethyl piperazineethanesulfonic acid, 1% antibiotic (100 U/mL penicillin and 100 µg/mL streptomycin), and 1 × nonessential amino acids. Chinese hamster lung cells overexpressing the rat GLP-1r were maintained in the same DMEM but without additional hydroxyethyl piperazineethanesulfonic acid or nonessential amino acids.
(§2) Levels of cAMP accumulation was measured in Chinese hamster ovary-K1 cells overexpressing the rat GCGr (cDNA from Origene, Cambridge Bioscience, Cambridge, United Kingdom) or Chinese hamster lung cells overexpressing the rat GLP-1r (a gift from Bernard Thorens, University of Lausanne, Switzerland). […]
(§3) Data were plotted and in vivo efficacy values calculated.
(§4) cAMP in vitro efficacy and binding in vitro affinity were calculated using nonlinear regression with Prism version 5 software (GraphPad Software Inc, San Diego, California). Differences in cumulative food intake and body weight were analyzed using 1-way ANOVA and post hoc tests with Dunnett or Bonferroni correction (Prism version 5 software). […]

rat GLP-1r = target: T2, rat GLP-1r (Rattus norvegicus, UniProt P32301); assay: cAMP accumulation in Chinese hamster lung cells overexpressing the rat GLP-1r; details: Chinese hamster lung cells overexpressing rGLP-1r; 30 min incubation, room temperature, 1 mM IBMX; cAMP ELISA; mean, n = 3
T2 construct: expressed in transfected cells; host or cells: Chinese hamster lung cells
T2 sequence (P32301 22-463): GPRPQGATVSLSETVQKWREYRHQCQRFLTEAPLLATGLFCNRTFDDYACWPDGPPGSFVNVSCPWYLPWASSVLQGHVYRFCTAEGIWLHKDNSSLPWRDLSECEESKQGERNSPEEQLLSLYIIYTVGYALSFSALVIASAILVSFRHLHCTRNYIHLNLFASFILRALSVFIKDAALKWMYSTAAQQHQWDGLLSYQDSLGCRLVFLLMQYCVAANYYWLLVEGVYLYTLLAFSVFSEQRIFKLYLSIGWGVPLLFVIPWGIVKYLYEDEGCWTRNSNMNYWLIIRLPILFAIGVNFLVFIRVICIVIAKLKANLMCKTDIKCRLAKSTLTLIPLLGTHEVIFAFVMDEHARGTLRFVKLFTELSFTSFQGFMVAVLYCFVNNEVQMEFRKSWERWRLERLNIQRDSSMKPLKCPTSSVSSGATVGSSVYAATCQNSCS
Experimental: as §1, §2, §3, §4

rat GCGr [2] = target: T1, rat GCGr; assay: Rat GCGr antagonism study: cAMP in the presence of 0.1 nM glucagon; details: n = 3
Experimental: Postincubation, medium was removed and cells lysed with 120 µL/well of 0.1 M hydrochloride + 0.5% nonionic, octylphenol ethoxylate surfactant. cAMP levels were measured using an indirect ELISA according to the manufacturer’s instructions (ADI-900-066, Enzo Life Sciences, United Kingdom), optical density was read at 405 nm on a Biotek ELx808 (Wolf Laboratories, York, United Kingdom). Data were plotted and […] efficacy values calculated.

T1 sequence (P30082 27-485): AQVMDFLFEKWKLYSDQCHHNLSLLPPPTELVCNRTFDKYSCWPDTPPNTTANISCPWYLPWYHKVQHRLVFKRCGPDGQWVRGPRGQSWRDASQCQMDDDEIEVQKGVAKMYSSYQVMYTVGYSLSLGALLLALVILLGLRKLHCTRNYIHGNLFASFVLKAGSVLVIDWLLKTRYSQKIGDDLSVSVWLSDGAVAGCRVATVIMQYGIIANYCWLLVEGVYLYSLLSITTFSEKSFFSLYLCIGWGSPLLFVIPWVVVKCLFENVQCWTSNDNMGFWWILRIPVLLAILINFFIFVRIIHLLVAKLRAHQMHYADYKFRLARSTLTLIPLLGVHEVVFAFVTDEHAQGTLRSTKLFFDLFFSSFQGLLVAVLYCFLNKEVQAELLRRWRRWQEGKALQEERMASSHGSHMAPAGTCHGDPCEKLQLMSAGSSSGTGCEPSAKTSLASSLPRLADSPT

- EC50 (rat GCGr [1]): 160 nM
- EC50 (rat GLP-1r): 8.1 nM
- increase of cAMP levels compared with glucagon stimulation alone (rat GCGr [2]; 30 nM peptide with 0.1 nM glucagon): 9%
- decrease of glucagon-mediated cAMP accumulation, mean (rat GCGr [2]; all concentrations tested except 30 nM, with 0.1 nM glucagon, relative to glucagon alone): 40.3%
SMILES: CC[C@H](C)[C@H](NC(=O)[C@H](CC(N)=O)NC(=O)[C@H](CC(N)=O)NC(=O)[C@H](CCCNC(=N)N)NC(=O)[C@H](CC(N)=O)NC(=O)[C@H](CCCNC(=N)N)NC(=O)[C@H](CCCCN)NC(=O)[C@@H](NC(=O)[C@H](CC(N)=O)NC(=O)[C@H](CCSC)NC(=O)[C@H](CC(C)C)NC(=O)[C@H](Cc1c[nH]c2ccccc12)NC(=O)[C@H](CCC(N)=O)NC(=O)[C@@H](NC(=O)[C@H](Cc1ccccc1)NC(=O)[C@H](CC(=O)O)NC(=O)[C@H](CCC(N)=O)NC(=O)[C@H](C)NC(=O)[C@H](CCCNC(=N)N)NC(=O)[C@H](CCCNC(=N)N)NC(=O)[C@H](CO)NC(=O)[C@H](CC(=O)O)NC(=O)[C@H](CC(C)C)NC(=O)[C@H](Cc1ccc(O)cc1)NC(=O)[C@H](CCCCN)NC(=O)[C@H](CO)NC(=O)[C@H](Cc1ccc(O)cc1)NC(=O)[C@H](CC(=O)O)NC(=O)[C@H](CO)NC(=O)[C@@H](NC(=O)[C@H](Cc1ccccc1)NC(=O)[C@@H](NC(=O)CNC(=O)[C@H](CCC(=O)O)NC(=O)[C@H](CO)NC(=O)[C@@H](N)Cc1c[nH]cn1)[C@@H](C)O)[C@@H](C)O)C(C)C)[C@@H](C)O)C(=O)N[C@@H](C)C(=O)O [OXME3]
